From ChEMBL document CHEMBL1126039, “Synthesis and antiviral activity of 1-cyclobutyl-5-(2-bromovinyl)uracil nucleoside analogues and related compounds” (J Med Chem, 1992) come the findings set out here.

For data set [1], the system named is WI-38. Description: Anti viral activity against HCMV(AD169) in WI-38 cell monolayers. The class given is functional. Conditions: Homo sapiens, read-out: ID50 (the source's name).
Data set [2] relates to WI-38. Description: Anti viral activity against HSV-2(186) in WI-38 cell monolayers. The class given is functional. Conditions: Homo sapiens, read-out: ID50 (the source's name).
Data set [3] has as its system WI-38. Description: Anti viral activity against HSV-1(Schooler) in WI-38 cell monolayers. The class given is functional. Conditions: Homo sapiens, read-out: ID50 (the source's name).
Data set [4] relates to WI-38. Description: Growth inhibitory activity against WI-38 cells. The class given is functional. Conditions: Homo sapiens, read-out: ID50 (the source's name).
Data set [5] addresses T1, Thymidine kinase, cytosolic (Homo sapiens) (UniProt P04183).
T1 sequence (whole entry): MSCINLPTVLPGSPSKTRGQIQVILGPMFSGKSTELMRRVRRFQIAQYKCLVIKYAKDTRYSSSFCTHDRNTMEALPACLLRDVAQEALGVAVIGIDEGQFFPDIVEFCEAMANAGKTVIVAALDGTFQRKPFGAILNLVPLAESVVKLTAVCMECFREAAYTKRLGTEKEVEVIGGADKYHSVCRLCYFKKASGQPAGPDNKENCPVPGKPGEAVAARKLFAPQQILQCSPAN
Conditions: Human alphaherpesvirus 3.

The subject of data set [6] is WI-38. Kind of data set: Anti viral activity against VZV(Oka strain) in WI-38 cell monolayers. The class given is functional. Conditions: Homo sapiens, read-out: ID50 (the source's name).
Data set [7] concerns WI-38. Kind of data set: Anti viral activity against VZV(pplla strain) in WI-38 cell monolayers. The class given is functional. Conditions: Homo sapiens, read-out: ID50 (the source's name).
For data set [8], the target named is T1, Thymidine kinase, cytosolic (Homo sapiens). Conditions: Human alphaherpesvirus 3. The source holds these as a separate data set.
The test system of data set [9] is WI-38. Kind of data set: Anti viral activity against VZV(Ito strain) in WI-38 cell monolayers. The format is functional. Conditions: Homo sapiens, read-out: ID50 (the source's name).
Data set [10] concerns WI-38. Kind of data set: Anti viral activity against VZV(9021 strain) in WI-38 cell monolayers. The class given is functional. Conditions: Homo sapiens, read-out: ID50 (the source's name).
The nature of data set [11]: Therapeutic index of compound maesured as ratio of ID50 for WI-38 cell growth inhibition / ID50 anti-VZV (strain Ellen). The class given is cell-based. Conditions: human, WI-38 cells; read-out: Therapeutic index.
Data set [12] deals with WI-38. Kind of data set: Anti viral activity against VZV (Kanno-Kohmura(TK-) strain) in WI-38 cell monolayers. The class given is functional. Conditions: Homo sapiens, read-out: ID50 (the source's name).
Data set [13] concerns WI-38. Kind of data set: Anti viral activity against VZV(Ellen strain) in WI-38 cell monolayers. The class given is functional. Conditions: Homo sapiens, read-out: ID50 (the source's name).
Data set [14] relates to WI-38. Kind of data set: Anti viral activity against HSV-1 in WI-38 cell monolayers. Conditions: Homo sapiens, read-out: ID50 (the source's name). The format is functional.
The subject of data set [15] is WI-38. Description: Anti viral activity against VZV in WI-38 cell monolayers. The class given is functional. Conditions: Homo sapiens, read-out: ID50 (the source's name).
The test system of data set [16] is WI-38. Kind of data set: Anti viral activity against HCMV in WI-38 cell monolayers. The class given is functional. Conditions: Homo sapiens, read-out: ID50 (the source's name).
The test system of data set [17] is WI-38. Kind of data set: Anti viral activity against HSV-2 in WI-38 cell monolayers. The format is functional. Conditions: Homo sapiens, read-out: ID50 (the source's name).
For data set [18], the system named is WI-38. Kind of data set: Anti viral activity against VZV(40a2 (TK-) strain) in WI-38 cell monolayers. Conditions: Homo sapiens, read-out: ID50 (the source's name). The class given is functional.

On to `Nc1nc2c(ncn2COCCO)c(=O)[nH]1` [ACYCLOVIR], for which the IC50 was 40000 nM with WI-38 [1], 800 nM with WI-38 [2], 200 nM with WI-38 [3] and above 750000 nM with WI-38 [4]. Also, in [5], the Kinase activity (pM min-1*ml-1) was 13.
`O=c1[nH]c(=O)n([C@@H]2O[C@H](CO)[C@@H](O)[C@@H]2O)cc1/C=C/Br` [SORIVUDINE]: the IC50 in the data set with WI-38 [1] was above 290000 nM; in the data set with WI-38 [2], 120000 nM; with WI-38 [6], 3 nM; in the data set on WI-38 [7] it was 3 nM; with WI-38 [3], 140 nM; in the data set with WI-38 [9], 7 nM. In addition, the IC50 was 3 nM in the data set on WI-38 [10], above 72000 nM in the data set on WI-38 [12], 3 nM in the data set on WI-38 [13] and above 75000 nM in the data set on WI-38 [4]. Further, the Kinase activity (pM min-1*ml-1) in [8] was found to be 95; in data set [5], 140. For the same compound, in data set [11], the selectivity ratio is above 7.5.
Turning to `O=c1[nH]c(=O)n([C@@H]2C[C@H](CO)C2CO)cc1I` (stereo partly specified), the IC50 in the data set on WI-38 [13] was found to be 28000 nM; in the data set with WI-38 [14], 14000 nM.
On to `O=c1[nH]c(=O)n([C@@H]2C[C@H](CO)C2CO)cc1/C=C/Br` (stereo partly specified), for which the IC50 was above 300000 nM in the data set on WI-38 [1]; above 300000 nM with WI-38 [2]; 200 nM in the data set with WI-38 [7]; 3000 nM in the data set on WI-38 [3]; 15 nM in the data set on WI-38 [9]; 150 nM with WI-38 [10]. The IC50 in the data set with WI-38 [12] was 150000 nM; in the data set on WI-38 [13], 200 nM; in the data set on WI-38 [4], above 750000 nM. Also, in data set [11], the selectivity ratio is above 1.3. Moreover, in data set [5], the Kinase activity (pM min-1*ml-1) amounted to 63.
Turning to `O=c1[nH]c(=O)n([C@@H]2C[C@H](CO)C2O)cc1I` (stereo partly specified), the IC50 in the data set on WI-38 [15], with WI-38 [16], in the data set with WI-38 [14] and in the data set on WI-38 [17] was above 300000 nM in each case.
Turning to `O=c1[nH]c(=O)n([C@@H]2C[C@H](CO)C2CO)cc1/C=C/Cl` (stereo partly specified), the IC50 is 350000 nM in the data set on WI-38 [1]; above 280000 nM in the data set on WI-38 [2]; 3500 nM in the data set on WI-38 [3]; 50 nM in the data set with WI-38 [9]; 1100 nM in the data set with WI-38 [10]; above 220000 nM with WI-38 [12]. Also, the IC50 is 400 nM with WI-38 [13] and above 400000 nM with WI-38 [4]. Besides, the selectivity ratio in data set [11] was above 2. The compound also gave a Kinase activity (pM min-1*ml-1) in data set [5] of 333.
With `O=c1[nH]c(=O)n([C@@H]2C[C@H](CO)C2CO)cc1/C=C/I` (stereo partly specified), the IC50 is 260000 nM in the data set with WI-38 [1]; above 260000 nM in the data set on WI-38 [2]; 260 nM with WI-38 [7]; 13000 nM in the data set with WI-38 [3]; 100 nM in the data set with WI-38 [9]; 130 nM with WI-38 [10]. In addition, the IC50 is above 260000 nM in the data set on WI-38 [12], 50 nM with WI-38 [13] and above 800000 nM with WI-38 [4]. Moreover, the selectivity ratio in [11] is above 2.7. The same compound came in with a Kinase activity (pM min-1*ml-1) in data set [5] of 736.
On to `Cc1cn([C@H]2C[C@H](O)[C@@H](CO)O2)c(=O)[nH]c1=O`, for which the Kinase activity (pM min-1*ml-1) was determined as 174 in [8] and 585 in data set [5].
Take `O=c1[nH]c(=O)n(C2CC(CO)C2CO)cc1/C=C/Br` (racemic): the IC50 in the data set with WI-38 [1] was above 300000 nM; in the data set on WI-38 [2], above 300000 nM; in the data set on WI-38 [6], 600 nM; in the data set on WI-38 [7], 200 nM; with WI-38 [3], above 6000 nM; in the data set with WI-38 [9] it was 150 nM. Also, the IC50 with WI-38 [10] was 600 nM; with WI-38 [18], above 300000 nM; in the data set with WI-38 [12] it was above 300000 nM; with WI-38 [13], 150 nM; in the data set on WI-38 [4], above 750000 nM. The selectivity ratio in [11] was above 2.5. In [5], this compound yielded a Kinase activity (pM min-1*ml-1) of 1280.
